Data from patent publication US7413876B2 (priority 1990, dated 2008).

Columns and labels:
[1] = tested on: 8c cells coexpressing hβAR and rat Gsα; assay: Shmoo formation (morphology) of yeast strain 8c (gpa1) coexpressing hβAR and rat Gsα
Protocol: Colonies were transferred to similar plates containing 0.5 mM ascorbic acid and the indicated adrenergic ligand(s). After 16-20 hours at 30° C., the colonies were transferred to similar liquid media at a density of 10^6-10^7 cells/ml and examined by phase contrast microscopy.

[2] = molecular target: human β2-adrenergic receptor (hβAR) (Homo sapiens, UniProt P07550)
Protocol: After 36 hours, cells were harvested and spheroplasts were prepared as described. […] Briefly, the spheroplasts were resuspended in 50 mM Tris-HCl pH 7.4, 5 mM EDTA and were lysed by vortex mixing with glass beads for three one-min periods at 4° C.
FIG. 2 illustrates hβAR ligand binding to membranes from pYβAR2-transformed yeast cells. […] Specific binding was defined as the amount of total binding (circles) minus nonspecific binding measured in the presence of 10 μM (−) alprenolol (squares).

[3] = molecular target: T1, Human β-Adrenergic Receptor (Homo sapiens, UniProt P07550); conditions: Monkey COS-7 (pBC12: β, BAR); cited from earlier work
T1 construct: expressed in transfected cells; host or cells: monkey COS-7 cells

[4] = tested on: pheromone-responsive FUS1 gene promoter; assay: FUS1-lacZ β-galactosidase induction in 8cl (gpal) cells coexpressing hβAR and rat Gsα; assay type: cell-based, yeast
Protocol: To confirm that the pheromone signaling pathway was activated by hβAR and rat Gsα, agonist induction of the pheromone-responsive FUSl gene promoter was measured in a strain of yeast derived from 8c cells (8cl) in which a FUS1-lacZ gene fusion had been stably integrated into the genome.
Strains 8c (FIG. 3, legend) and NNY19 (MATa ura3 leu2 his3 trp1 lys2 FUSl-LacZ::LEU2) were modified by integrative transformation with YIpFUS102 (LEU2), S. Nomoto et al., supra, and designated 8cl and NNY19, respectively. These strains were transformed with pYβAR2 and pYSK136Gαs and maintained on minimal selective plates containing glucose and 50 μM CuSO4. […] See J. Miller, supra.
Agonist stimulation was stereoselective and was blocked by addition of a specific antagonist. Agonist responsiveness was dependent on expression of both hβAR and rat Gsα, and required a strain in which the endogenous G protein α-subunit was disrupted.

Compound: C=CCc1ccccc1OCC(O)CNC(C)C (stereo not drawn) [alprenolol]
- block of isoproterenol-induced shmoo formation ([1]; 100 μM (−) isoproterenol and 50 μM (−) alprenolol): blocked

Compound: (−) epinephrine
- Ki [2]: 664 ± 123 nM

Compound: CC(C)(C)NC[C@H](O)COc1cccc2[nH]c(C#N)c(I)c12 [125I-CYP, 125I-labeled cyanopindolol]
- Kd ([2]; read-out: Kd for 125I-CYP binding, 125I-CYP 5-400 pM, nonspecific binding with 10 μM (−) alprenolol): 0.093 nM

Compound: CC(C)(C)NC[C@H](O)COc1cccc2[nH]c(C#N)c([125I])c12 [125I-CYP, 125I-labeled cyanopindolol]
- Bmax, maximum ligand bound ([2]; Yeast SC261 (pYβAR2, pMTL9) membranes): 115 pmol/mg
- binding of 125I-CYP to membranes ([2]; membranes from pYβAR2-transformed yeast cells): bound in a saturable manner and with high affinity
- Bmax, maximum ligand bound [3]: 24 pmol/mg

Compound: CC(C)NCC(O)c1ccc(O)c(O)c1 (stereo not drawn) [isoproterenol]
- shmoo formation ([1]; 100 μM isoproterenol, 16-20 hours at 30° C., phase contrast microscopy): induced shmoo formation
- induction of β-galactosidase activity ([4]; 8cl (gpal) cells, 4 hour incubation at 30° C.): dramatic isoproterenol-stimulated induction
- final β-galactosidase activity relative to α-factor in nontransformed NNY19 cells ([4]; transformed 8cl cells vs NNY19 cells expressing GPA1): comparable to that induced by α-factor
